Assay [1] addresses T1, DYRK1A (Homo sapiens (Human), UniProt Q13627). The conditions noted are these: cited from earlier work.
The target of assay [2] is T1, DYRK1A. Nature of the assay: DYRK1A Inhibition Assay. It is filed as biochemical. The note with it: Compounds of Formula (I); DYRK1A 1 nM, ATP 20 μM, Ser/Thr 18 peptide 2 μM, 90 minutes; read-out: DYRK1 IC50. The method, then:
DYRK1A—Invitrogen #PV4105
• Ser/Thr 18 peptide—Invitrogen #PR8227U • Phos-Ser/Thr 18 peptide—Invitrogen #PR8229U • Assay plate—PerkinElmer #6007279 • ATP—Sigma #A7699-5G • Development reagent A—Invitrogen #PR5194B • Development buffer—Invitrogen #PR4876B Compound preparation • 1. Test compounds were diluted to 1 mM in DMSO • 2. Stock was further diluted 3-fold using Echo platform • 3. 100 nL of DMSO into Columns 1 and 24 and 100 nL of compounds dilutions to Columns 2-23 in a plate.
• 1. Add 5 μL enzyme & substrate mixture to each well in Column 2-23 and A24-H24 wells of the 384-well assay plate; • 2. Add 5 μL 0% Phosphorylation control to A1-H1 and I24-P24 wells of the assay plate; • 3. Add 5 μL 100% Phosphorylation control to I1-P1 wells of the assay plate; • 4. Spin the assay plate (1000 rpm, 1 minute @23° C.); • 5. Incubate enzyme with compounds for 15 minutes at 23° C.; • 6. Add 5 μL ATP solution to each well of the assay plate; • 7. Spin the plate (1000 rpm, 1 minute @23° C.); • 8. Incubate the assay plate for 90 minutes at 23° C.; • 9. Add 10 μL Development reagent A to each well of the assay plate; • 10. Centrifuge the plate at 1000 rpm about 15 seconds and seal a film over assay plate. Incubate the assay plate for 30 minutes at 23° C. • 11. Read assay plates on Envision (see Tables A-D).
Final Compound Concentrations
• Assay buffer: 50 mM Hepes pH7.5, 10 mM MgCl2, 1 mM EDTA, 0.01% Brij-35 • DYRK1A: 1 nM • ATP: 20 μM • Ser/Thr 18 peptide: 2 μM • Reaction time: 90 minutes

pIC50: −log10 of the molar value.

In the case of `O=C(O[C@@H]1Cc2c(O)cc(O)cc2O[C@@H]1c1cc(O)c(O)c(O)c1)c1cc(O)c(O)c(O)c1` [EGCG, Epigallocatechin gallate], the “mode of DYRK1A inhibition” value at DYRK1A [1] was “non-ATP competitive DYRK1A inhibitor”.

With `Cn1cc(-c2ccc3cnc4c(c3c2)c([C@H]2CC[C@@H](N(C)C)CC2)cn4C)cn1` [Compound 49, (1s,4s)-N,N-dimethyl-4-(3-methyl-8-(1-methyl-1H-pyrazol-4-yl)-3H-pyrrolo[2,3-c]isoquinolin-1-yl)cyclohexan-1-amine], the pIC50 at DYRK1A [2] was 7.00 to 8.00.

For `O=c1[nH]c2ncc3ccc(-c4cccnc4)cc3c2n1Cc1cccnc1` [Compound 11, 8-(pyridin-3-yl)-1-(pyridin-3-ylmethyl)-1,3-dihydro-2H-imidazo[4,5-c]isoquinolin-2-one], the pIC50 at DYRK1A [2] was 6.00 to 7.00.

Consider `O[C@H]1CCN(c2cncc(-c3ccc4cnc5[nH]c(C6CCC6)cc5c4c3)c2)C1` [Compound 69], for which, on DYRK1A [2], the pIC50 is 7.00 to 8.00. `CC(C)CN1CCC(c2cc3c(ncc4ccc(-c5cncn5C)cc43)[nH]2)CC1` [Compound 87]: the pIC50 on DYRK1A [2] is 7.00 to 8.00. As for `Cn1cc(-c2ccc3cnc4c(c3c2)c([C@H]2CC[C@@H](C(=O)O)CC2)cn4C)cn1` [Compound 46, 4-(3-methyl-8-(1-methyl-1H-pyrazol-4-yl)-3H-pyrrolo[2,3-c]isoquinolin-1-yl)cyclohexane-1-carboxylic acid], the pIC50 at DYRK1A [2] is 7.00 to 8.00.

Usually pIC50 stands for the negative decadic logarithm of the IC50, by convention in mol/L.
